Laboratory results from US7897789B2, “Vitamin D receptor modulators” (Eli Lilly and Company, priority 2003, dated 2011).
Values joined by “and” are separate entries in the source; they are usually repeats but may differ in a detail not shown here. Equal values may be shown once. Read-outs that look alike come from different tables or passages of the source.

Experiments:
DBF mice [1] = conditions: in vivo, po
Description: The Mouse Hypercalcemia Assay
(§1) The Mouse Hypercalcemia Assay is a six day hypercalcemia test for toxicity and selectivity.
(§2) (4) Materials and Method for the Mouse Hypercalcemia Assay:
(§3) Weanling, virus-antibody-free, five to six weeks old female DBF mice (Harlan, Indianapolis, Ind.) are used for all the studies. Animals are allowed to acclimate to local vivarium conditions for 2 days. […] The animals then are divided into groups with 4-5 mice per group. Different doses of test compounds prepared in 10% Ethanol and 90% sesame oil are administered to mice orally via gavage for 6 days. 1α-25(OH)2D3 0.5 μg/kg/d was also given to one group of mice as the positive control. […] Raw data of group differences is assessed by analysis of variance (ANOVA) using Fisher's protected least significant difference (PLSD) where the significance level was P<0.05.

rat osteocalcin promoter = assay: OCN (osteocalcin) promoter assay; format: cell-based; conditions: Rattus norvegicus, 48 h, RG-15 (ROS 17/2.8) cells, 48 hr treatment; Table 1
Method: 3. The OCN (Osteocalcin) Promoter Assay
The OCN Promoter Assay is an indicator and marker for osteoporosis. […] Preferred assay results are less than 50 nM.
(3) Materials and Method for the OCN Promoter Assay:
The activation of osteocalcin by VDR ligands was evaluated in a rat osteoblast-like cell line RG-15 (ROS 17/2.8) stably expressing rat osteocalcin promoter fused with luciferase reporter gene. […] Confluent RG-15 cells maintained in DMEM/F-12 medium (3:1) containing 5% FBS, 300 μg/ml G418 and at 37° C. under 5% CO2/95% air atmosphere were trypsinized (0.25% trypsin) and plated into white opaque 96-well cell culture plates (25000 cells/well). After 24 hr, cells (in DMEM/F-12 medium+2% FBS) were treated with various concentrations of compounds, dissolved in DMSO. The final DMSO concentration remained at 0.01% (v/v). After 48 hr treatment, the medium was removed, cells were lysed with 50 μl of lysis buffer (From Luciferase reporter assay system, Roche Diagnostics, Indianapolis, Ind.) and assayed for luciferase activity using the Luciferase Reporter Gene Assay kit from Boehringer Mannheim as per manufacturer's specifications.

RXR-VDR heterodimer = target: T1, RXR-VDR heterodimer (Homo sapiens, UniProt P11473); assay: RXR-VDR heterodimerization assay (SaOS-2 cells); format: cell-based; conditions: Gal4-RXR / VP16-VDR-LBD luciferase reporter, Table 1
T1 construct: Add the Gal4-RXR-DEF and VP16-VDR-LBD; expressed in transfected cells; host or cells: SaOS-2 cells
T1 sequence (P11473 127-423 limits assumed): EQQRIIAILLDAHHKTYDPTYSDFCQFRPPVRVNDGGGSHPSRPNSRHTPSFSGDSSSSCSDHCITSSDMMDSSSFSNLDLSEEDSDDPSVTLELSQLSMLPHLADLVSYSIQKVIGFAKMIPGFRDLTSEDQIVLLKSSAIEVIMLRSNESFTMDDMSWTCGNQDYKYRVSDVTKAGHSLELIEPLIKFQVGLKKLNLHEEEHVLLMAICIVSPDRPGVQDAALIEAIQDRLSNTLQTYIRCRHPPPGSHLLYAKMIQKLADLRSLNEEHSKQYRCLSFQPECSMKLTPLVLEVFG
T1 sequence (P19793 201-462 partner limits assumed): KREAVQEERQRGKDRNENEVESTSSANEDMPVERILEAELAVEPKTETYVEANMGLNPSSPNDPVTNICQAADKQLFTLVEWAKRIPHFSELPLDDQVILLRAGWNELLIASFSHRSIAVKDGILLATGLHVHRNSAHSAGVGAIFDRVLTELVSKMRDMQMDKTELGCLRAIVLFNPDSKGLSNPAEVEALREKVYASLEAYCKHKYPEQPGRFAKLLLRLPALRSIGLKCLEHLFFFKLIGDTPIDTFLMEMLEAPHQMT
Method: 1. The RXR-VDR HeterodimerAssay:
This assay provides the VDR activity of a test compound.
(1) Materials and Method for RXR-VDR Heterodimerization Assay:
Luciferase Assay Reagent: • Use Steady-Glo Luciferase Reagent from Promega (Cat #E2550) Consists of: a. E2533 Assay Substrate, lyopholized product and b. E2543 Assay Buffer. • Thaw at room temperature • Store Cell Harvesting Aspirate media from culture flask, rinse cells with HBSS and aspirate. Add trypsin and incubate. When cells appear detached, resuspend cells in growth media. Transfer into a new flask with fresh growth media for passaging the cells. Plate well plates and two extra plates A. Cell Count Mix the cell suspension using pipette Use Hematocytometer to count the cells Load cell suspension onto the hemocytometer chamber Count cells. […] In sterile flask add cell suspension to plating media. Mix. Add cells/well. Place the cells in the incubator. Cells should be about 75% confluent prior to transfection. DAY 2: Transfection Step 1: DNA and Media Add plain DMEM media to tubes for mixing the DNA Add the Reporter gene pFR-LUC Add the Gal4-RXR-DEF and VP16-VDR-LBD Step 2: FuGENE and Media Prepare plain DMEM media in a ubes for mixing FuGENE Add FuGENE 6 Transfection Reagent Incubate Step 3: FuGENE, DNA and Media Complex Add FuGENE Media complex from step 2 to DNA Media complex from step 1 Incubate Step 4: FuGENE, DNA and Media Complex to-well plate Add FuGENE-DNA-Media complex from step 3 to each plate Incubate. […] Day 4: Luciferase Assay Read the plates after drug treatment Remove part of media from all the wells and leave remainder Add Steady-Glo Luciferase Reagent mixture/wells Incubate Count each well using a Luminescence counter, Top Count NXT by Packard
Set a delay between plates to reduce the background.

VDR = target: T2, VDR (Homo sapiens, UniProt P11473); assay: Caco-2 cell co-transfection assay (VDR CTF); format: cell-based; conditions: Caco-2 cells, pGal4-VDR-LBD luciferase co-transfection; Table 1
T2 construct: the receptor expression vector pGal4-VDR-LBD (10 ng); expressed in transfected cells; host or cells: Caco-2 cells
T2 sequence (P11473 127-423 limits assumed): T1 sequence (P11473 127-423 limits assumed)
Method: 2. The Caco-2 Cell Co-Transfection Assay:
The Caco-2 cell assay is an indicator for the undesirable condition of hypercalcemia. This co-transfection assay is a surrogate assay for in vivo calcemic activity of VDR ligands. […] Preferred assay results are greater than 1000 nM.
(2) Materials and Method for The Caco-2 Cell Assay:
Caco-2 cells, grown in phenol red free, DMEM (Invitrogen, Carlsbad, Calif.) containing 10% charcoal-stripped FCS (Hyclone, Logan, Utah), were transfected with Fugene 6 reagent (Roche Diagnostics, Indianapolis, Ind.). Cells (5000/well) were plated 18 h before transfection in a 96 well plate. The Cells were transfected with Gal4-responsive reporter pFRLuc (150 ng, Stratagene, La Jolla Calif.) and the receptor expression vector pGal4-VDR-LBD (10 ng), along with Fugene 6 reagent (0.2 μl/well). The DNA-Fugene complex was formed by incubating the mixture for 30 min at room temperature. The cells were transfected in triplicate for 5 h, and treated with various concentrations of VDR ligands (form 0.01 nM to 10,000 nM concentration range) 18 h post-transfection. The luciferase activity was quantified using Steady-Glo reagent kit (Promega, Madison, Wis.) as per manufacturer's specifications.

DBF mice [2] = assay: Mouse hypercalcemia assay; conditions: oral gavage for 6 days, serum ionized calcium 6 hours after last dosing; Table 1
Description: The Mouse Hypercalcemia Assay
as §1, §2, §3

KERtr cells = assay: Keratinocyte proliferation assay; format: cell-based; conditions: Homo sapiens, 72 h, BrdU incorporation, Table 2, read-out: Kera. Prolif. IC50
Method: 5. The Keratinocyte Proliferation Assay
This Assay is indicative for the treatment of psoriasis.
(5) The Keratinocyte Proliferation Assay:
KERtr cells (Human skin keratinocyte transformed with a retrovirus vector, obtained from ATCC) were plated in 96-well flat-bottomed plates (3000 cells/well) in 100 μl keratinocyte serum free medium supplemented with bovine pituitary extract in the absence of EGF (Life Technologies, Rockville, Md.) and incubated at 37° C. for two days. The cells were treated with various concentrations of VDR ligands (ten-fold serial dilution from 10,000 nM to 0.1 nM in triplicate), dissolved in 100 μl keratinocyte serum free medium supplemented with bovine pituitary extract in the absence of EGF and incubated at 37° C. for 72 hr. […] Potency values (IC50) values were determined as the concentration (nM) of compound that elicited a half-maximal response.

IL-10 = assay: Human IL-10 induction assay in PBMCs; format: cell-based; conditions: PBMC; TPA/PHA treated human PBMCs; Table 2
Description: 6. The IL-10 Induction Assay
This is an in vitro efficacy assay for psoriasis, abscess and adhesion. Psoriasis involves both keratinocytes and immune cells. IL-10 is a unique cytokine because it is anti-inflammatory and immunosuppressive. This assay tells us whether a VDRM is able to function as an agonist in PBMCs ([…]) or not.
(6) Materials and Method for Human IL-10 Induction Assay:
Isolation of Peripheral Blood Mononuclear Cells (PBMCs):
Stimulation of PBMC: • L. Prepare TPA in DMSO. • M. Dissolve PHA in water. • N. Plate TPA/PHA treated PBMCs in well plates. • O. Incubate.
Sample Collection and Assay: • S. Remove all the cells by centrifugation and assay the supernatant for IL-10 by immunoassay. • T. Perform IL-10 assay using anti-human IL-10 antibody coated beads, as described by the manufacturer (Linco Research Inc., St. Charles, Mo.). (8) CaT1 Assay

| Compound | Mouse Hypercal (DBF mice [1]) [µg/kg/day] | EC50 (rat osteocalcin promoter) [nM] | EC50 (RXR-VDR heterodimer) | EC50 (VDR) [nM] | Mouse Hypercal (DBF mice [2]) [µg/kg/day] | IC50 (KERtr cells) [nM] | IC50 (IL-10) [nM] |
| --- | --- | --- | --- | --- | --- | --- | --- |
| C=C1/C(=C\C=C2/CCC[C@]3(C)[C@@H]([C@H](C)CCCC(C)(C)O)CC[C@@H]23)C[C@@H](O)C[C@@H]1O [AA, 1α,25-dihydroxyvitamin D3] | 0.06 | – | – | – | – | – | – |
| CCC(CC)(c1ccc(OCC(=O)C(C)(C)C)c(C)c1)c1cc2cc(C(=O)NCC(=O)O)ccc2s1 [Ex 19, [(2-{1-[4-(3,3-Dimethyl-2-oxo-butoxy)-3-methyl-phenyl]-1-ethyl-propyl}-benzo[b]thiophene-5-carbonyl)-amino]-acetic acid] | – | 4.7 | 114 nM and 21 nM | 815 | >300 | 16 | 149 |
| CCC(CC)(c1ccc(OCC(=O)C(C)(C)C)c(C)c1)c1cc2ccc(C(=O)NCC(=O)O)cc2s1 [Ex. 11, [(2-{1-[4-(3,3-dimethyl-2-oxo-butoxy)-3-methyl-phenyl]-1-ethyl-propyl}-benzo[b]thiophene-6-carbonyl)-amino]-acetic acid] | – | 0.2 | 45 nM | 299 | >300 | 2 | 10 |
